Assay results reported in patent publication US9023843B2, “Antimicrobial compounds and methods of making and using the same” (Melinta Therapeutics, Inc., priority 2009, dated 2015).

System: Eschericia coli strain ATCC25922
Experiment: standard microdilution assay to determine minimum inhibitory concentrations (MICs)
Assay type: cell-based
Settings: Escherichia coli, read-out: E. coli ATCC25922 MIC
Procedure, shortened: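 Broth microdilution per CLSI protocols, typically 100 µL final volume, against E. coli ATCC25922. MIC values scored as +/− against a cutoff of 16 micrograms/ml.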

MIC: < 16 µg/mL
SMILES: CN(C)CC(=O)N1CCC(c2ccc3c(c2)Nc2nc(=O)n(C4CCC(NCCCNC(=N)N)CC4)cc2O3)CC1 (stereo not shown) [Compound 751]
